Test results: the supplement of paper PMC8617591

What was measured:
[1] = system: Mycobacterium tuberculosis Erdman (autoluminescent); test: total FIC90 (Loewe) at 90% inhibition, three-drug combination (log2); higher = more antagonistic
Procedure: (§1)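 DiaMOND equipotent three-drug combination dose responses (10 doses, 1.5- or 2-fold spacing, centred on IC90) against autoluminescent M. tuberculosis Erdman in 8 in vitro models. Read-out is OD600, or luminescence for the intracellular and dormancy models, normalised to untreated wells. Hill-fit Einf, AUC25 and GRinf are potency metrics; FIC50 and FIC90 are total Loewe fractional inhibitory concentrations as log2 (negative = synergy).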

[2] = system: Mycobacterium tuberculosis Erdman (autoluminescent); test: Einf, fitted maximum growth inhibition of three-drug combination (fraction); higher = stronger maximal inhibition
Procedure: as §1

[3] = system: Mycobacterium tuberculosis Erdman (autoluminescent); test: GRinf, maximum normalised growth rate inhibition (three-drug combination) (unitless (-1 to 1)); higher = less effect (negative = killing)
Procedure: as §1

[4] = system: Mycobacterium tuberculosis Erdman (autoluminescent); test: total FIC50 (Loewe) at 50% inhibition, three-drug combination (log2); higher = more antagonistic
Procedure: as §1

[5] = system: Mycobacterium tuberculosis Erdman (autoluminescent); test: AUC25, normalised area under dose response up to IC25 (three-drug combination) (fraction (0-1)); higher = more potent at low dose
Procedure: as §1

COc1c(N2C[C@@H]3CCCN[C@@H]3C2)c(F)cc2c(=O)c(C(=O)O)cn(C3CC3)c12 [moxifloxacin] + NC(=O)c1cnccn1 [pyrazinamide] + CO[C@H]1/C=C/O[C@@]2(C)Oc3c(C)c(O)c4c(O)c(c(/C=N/N5CCN(C)CC5)c(O)c4c3C2=O)NC(=O)/C(C)=C\C=C\[C@H](C)[C@H](O)[C@@H](C)[C@@H](O)[C@@H](C)[C@H](OC(C)=O)[C@@H]1C [rifampicin]
Details	AUC25, [5]	Einf, [2]	GRinf, [3]	total FIC50, [4]	total FIC90, [1]
in vitro model: acidic pH 5.7, time point: constant (~7 days, model-specific)	0.0731	0.851	-0.155	0.177	–
in vitro model: acidic pH 5.7, time point: terminal (~4-5 doublings, model-specific)	0.0678	0.99	-0.208	0.423	-0.913
in vitro model: intracellular J774, time point: constant = terminal	–	0.99	-0.539	–	0.76

Details	AUC25, [5]	Einf, [2]	GRinf, [3]	total FIC50, [4]	total FIC90, [1]
in vitro model: butyrate, time point: constant (~7 days, model-specific)	0.119	0.869	0.125	0.49	2.29
in vitro model: butyrate, time point: terminal (~4-5 doublings, model-specific)	0.114	0.977	-0.00285	0.525	1.3
in vitro model: cholesterol 0.05 mM, time point: constant (~7 days, model-specific)	0.096	0.6	0.1	–	–
in vitro model: cholesterol 0.05 mM, time point: terminal (~4-5 doublings, model-specific)	0.0868	0.868	-0.00841	1.23	–
in vitro model: cholesterol-high 0.2 mM, time point: constant (~7 days, model-specific)	0.0908	0.912	-0.393	1.26	–
in vitro model: cholesterol-high 0.2 mM, time point: terminal (~4-5 doublings, model-specific)	0.0879	1	-0.949	1.58	1.47
in vitro model: dormancy (butyrate + nitrate, low O2), time point: constant (~7 days, model-specific)	0.0806	0.87	0.204	0.465	-0.0278
in vitro model: dormancy (butyrate + nitrate, low O2), time point: terminal (~4-5 doublings, model-specific)	0.0656	0.978	-0.115	0.411	0.407
in vitro model: standard 7H9 glycerol, time point: constant = terminal	0.0452	0.781	0.36	–	–
in vitro model: valerate, time point: constant (~7 days, model-specific)	0.0626	0.785	0.176	0.864	–
in vitro model: valerate, time point: terminal (~4-5 doublings, model-specific)	0.0319	0.909	0.127	0.853	0.657

COc1c(N2C[C@@H]3CCCN[C@@H]3C2)c(F)cc2c(=O)c(C(=O)O)cn(C3CC3)c12 [moxifloxacin] + O=[N+]([O-])c1cn2c(n1)OC[C@@H](OCc1ccc(OC(F)(F)F)cc1)C2 [pretomanid] + CO[C@H]1/C=C/O[C@@]2(C)Oc3c(C)c(O)c4c(O)c(c(/C=N/N5CCN(C6CCCC6)CC5)c(O)c4c3C2=O)NC(=O)/C(C)=C\C=C\[C@H](C)[C@H](O)[C@@H](C)[C@@H](O)[C@@H](C)[C@H](OC(C)=O)[C@@H]1C [rifapentine]
Details	AUC25, [5]	Einf, [2]	GRinf, [3]	total FIC50, [4]	total FIC90, [1]
in vitro model: acidic pH 5.7, time point: constant (~7 days, model-specific)	0.0693	0.874	-0.139	0.708	–
in vitro model: acidic pH 5.7, time point: terminal (~4-5 doublings, model-specific)	0.0354	0.971	-0.106	0.952	0.554
in vitro model: intracellular J774, time point: constant = terminal	–	0.964	-0.179	–	0.252

Details	AUC25, [5]	Einf, [2]	GRinf, [3]	total FIC50, [4]	total FIC90, [1]
in vitro model: butyrate, time point: constant (~7 days, model-specific)	0.099	0.918	-0.00663	0.501	0.722
in vitro model: butyrate, time point: terminal (~4-5 doublings, model-specific)	0.0765	0.963	-0.00653	0.582	0.784
in vitro model: cholesterol 0.05 mM, time point: constant (~7 days, model-specific)	0.111	0.713	-0.172	0.593	–
in vitro model: cholesterol 0.05 mM, time point: terminal (~4-5 doublings, model-specific)	0.0851	0.89	-0.186	1.01	1.21
in vitro model: cholesterol-high 0.2 mM, time point: constant (~7 days, model-specific)	0.0549	0.877	-0.142	0.887	0.511
in vitro model: cholesterol-high 0.2 mM, time point: terminal (~4-5 doublings, model-specific)	0.04	0.988	-0.672	1.15	0.705
in vitro model: dormancy (butyrate + nitrate, low O2), time point: constant (~7 days, model-specific)	0.0589	0.89	0.213	0.874	0.639
in vitro model: dormancy (butyrate + nitrate, low O2), time point: terminal (~4-5 doublings, model-specific)	0.0483	0.98	-0.128	1.17	1.14
in vitro model: standard 7H9 glycerol, time point: constant = terminal	0.0568	0.928	-0.0296	0.55	0.207
in vitro model: valerate, time point: constant (~7 days, model-specific)	0.116	0.89	0.0703	0.213	–
in vitro model: valerate, time point: terminal (~4-5 doublings, model-specific)	0.0723	0.941	0.0683	0.631	0.879

COc1c(N2C[C@@H]3CCCN[C@@H]3C2)c(F)cc2c(=O)c(C(=O)O)cn(C3CC3)c12 [moxifloxacin] + O=[N+]([O-])c1cn2c(n1)OC[C@@H](OCc1ccc(OC(F)(F)F)cc1)C2 [pretomanid] + CO[C@H]1/C=C/O[C@@]2(C)Oc3c(C)c(O)c4c(O)c(c(/C=N/N5CCN(C)CC5)c(O)c4c3C2=O)NC(=O)/C(C)=C\C=C\[C@H](C)[C@H](O)[C@@H](C)[C@@H](O)[C@@H](C)[C@H](OC(C)=O)[C@@H]1C [rifampicin]
Details	AUC25, [5]	Einf, [2]	GRinf, [3]	total FIC50, [4]	total FIC90, [1]
in vitro model: acidic pH 5.7, time point: constant (~7 days, model-specific)	0.0717	0.875	-0.146	0.484	–
in vitro model: acidic pH 5.7, time point: terminal (~4-5 doublings, model-specific)	0.0448	0.974	-0.163	0.652	0.221
in vitro model: intracellular J774, time point: constant = terminal	–	0.979	-0.304	–	0.0806

Details	AUC25, [5]	Einf, [2]	GRinf, [3]	total FIC50, [4]	total FIC90, [1]
in vitro model: butyrate, time point: constant (~7 days, model-specific)	0.0923	0.912	0.0241	0.355	0.227
in vitro model: butyrate, time point: terminal (~4-5 doublings, model-specific)	0.085	0.962	0.00652	0.25	0.434
in vitro model: cholesterol 0.05 mM, time point: constant (~7 days, model-specific)	0.0931	0.606	-0.000182	0.67	–
in vitro model: cholesterol 0.05 mM, time point: terminal (~4-5 doublings, model-specific)	0.0743	0.858	-0.0705	1.14	-0.636
in vitro model: cholesterol-high 0.2 mM, time point: constant (~7 days, model-specific)	0.0701	0.849	-0.468	0.869	1.29
in vitro model: cholesterol-high 0.2 mM, time point: terminal (~4-5 doublings, model-specific)	0.0765	0.996	-0.801	0.954	0.992
in vitro model: dormancy (butyrate + nitrate, low O2), time point: constant (~7 days, model-specific)	0.0676	0.883	0.23	0.689	0.327
in vitro model: dormancy (butyrate + nitrate, low O2), time point: terminal (~4-5 doublings, model-specific)	0.0531	0.965	-0.0626	0.662	0.913
in vitro model: standard 7H9 glycerol, time point: constant = terminal	0.0625	0.883	0.162	0.125	–
in vitro model: valerate, time point: constant (~7 days, model-specific)	0.0778	0.847	0.0569	0.325	–
in vitro model: valerate, time point: terminal (~4-5 doublings, model-specific)	0.0459	0.924	0.0455	0.877	0.41
